# Read-outs that look alike come from different tables or passages of the source.
# Key:
# clinical = format: in vivo, human
# Method: A pharmacokinetic (PK) analysis was conducted of oritavancin from patients having complicated skin and skin structure infections (cSSSI) or bacteremia. The population for the analysis consisted of oritavancin-treated subjects and patients from 12 studies, consisting of nine Phase 1 studies, two Phase 2 studies, and one Phase 2/3 study. Oritavancin was administered as both single- and multiple-dose intravenous (IV) infusions in fixed doses ranging from 100 to 800 mg or weight-based doses ranging from 0.02 to 10 mg/kg.
# Results: The final analysis population contained data from a total of 560 subjects: 200 from the Phase 1 studies, 86 from the Phase 2 bacteremia study, 29 from the Phase 2 cSSSI study, and 245 from the Phase 2/3 cSSSI study. The final pharmacokinetic analysis dataset contained a total of 6,336 oritavancin plasma concentrations, collected from these 560 subjects, of which 6,290 oritavancin concentrations were included in the results. The majority of subjects (>90%) contributed at least six samples to the population pharmacokinetic analysis.
# A wide range of oritavancin doses was administered across the studies included in the population PK analysis, where 42% (236 of 560) of subjects received ≧400 mg, while 25% (142 of 560) received 800 mg or more. A histogram of the oritavancin doses administered is shown in FIG. 6, with midpoint values for each dose range shown over each bar. The duration over which oritavancin was infused ranged from 0.13 to 6.5 hr across all studies; however, oritavancin was administered over 1 hr for the majority of subjects. Histograms of the actual infusion durations and rates are shown in FIGS. 7 and 8, respectively, with midpoint values shown for each infusion duration or rate over each bar.
# The final structural PK model for oritavancin in this analysis was a three-compartment model (one central, two peripheral) with a zero-order intravenous infusion rate and first-order, linear elimination. The model fit the data well (data not shown), regardless of the observed concentration or administered dose. If a nonlinear model had been necessary, there would have been significant bias in the weighted residuals at the lowest and/or highest concentrations and/or doses. No trends for decreasing CL with increasing dose were found.
# MSSA or MRSA strains = experiment: Neutropenic-mouse thigh infection model, MSSA or MRSA strains, 72 h post-infection; format: in vivo, Staphylococcus aureus; details: independently of their MIC
# Method: Methods: Thigh infection was established for 14 clinical SA isolates (3 MSSA and 11 MRSA; MICs 0.0015 to 2 μg/mL) in neutropenic CD-1 mice (n=3/group) with 5×10^5 colony forming units (CFU) of cells. Single intravenous doses of ORI (0.5 to 40 mg/kg) were tested against one MSSA and one MRSA strain. […] Both thighs were harvested and CFU counts were evaluated after 24 h (single doses) or 72 h (HEQ doses) treatment.
# In vivo studies: All studies were performed in accordance with protocols that were approved by the Institutional Animal Care and Use Committee. Thigh infection was established for 14 clinical S. aureus isolates in neutropenic CD-1 mice (19-21 g, n=3/group) with 5×10^5 colony forming units (CFU) of cells in both thighs. In the single dose-response study, the number of bacteria/thigh was monitored 24 h post-infection (PI). In the human equivalent (HEQ) dose-ranging study, the bacterial titer was determined in mouse thighs at 2, 4, 8, 12, 24, 48 and 72 h PI. Thighs were serially diluted and plated on Baird-Parker agar plates to determine the bacterial titer. The limit of detection was 1.69 Log10 CFU/thigh. Bacterial titer decreases were calculated (compared to starting inoculum) in thighs at 72 h PI for each HEQ dose regimen of ORI.
# Antibiotherapy: 1) In the single dose response study, mice were treated intravenously (IV) with ORI at doses ranging from 0.4 to 40 mg/kg at lh PI. […]
compound,measurement,setting,value
"CN[C@H](CC(C)C)C(=O)N[C@H]1C(=O)N[C@@H](CC(N)=O)C(=O)N[C@H]2C(=O)N[C@H]3C(=O)N[C@H](C(=O)N[C@H](C(=O)O)c4cc(O)cc(O)c4-c4cc3ccc4O)[C@H](O[C@H]3C[C@](C)(N)[C@@H](O)[C@H](C)O3)c3ccc(c(Cl)c3)Oc3cc2cc(c3O[C@@H]2O[C@H](CO)[C@@H](O)[C@H](O)[C@H]2O[C@H]2C[C@](C)(NCc3ccc(-c4ccc(Cl)cc4)cc3)[C@@H](O)[C@H](C)O2)Oc2ccc(cc2Cl)[C@H]1O [Oritavancin, N-(4-(4-chlorophenyl)benzyl)A82846B]","Cmin, Mean",clinical; 180-330 mg/day (n = 140),2580 ng/mL
same,"Cmin, Median",clinical; 180-330 mg/day (n = 140),2200 ng/mL
same,"Cmin, Mean",clinical; <180 mg/day (n = 181),1170 ng/mL
same,"Cmin, Median",clinical; <180 mg/day (n = 181),949 ng/mL
same,"Cmin, Mean",clinical; >330 mg/day (n = 239),12500 ng/mL
same,"Cmin, Median",clinical; >330 mg/day (n = 239),11000 ng/mL
same,Vc,"clinical; healthy subjects, Multiple Dose (n = 109)",5.10 L
same,Cmin,"clinical; healthy subjects, Multiple Dose (n = 109), normalized to a dose of 200 mg, after a median of 4 (2-14) days",11500 ng/mL
same,Vc,"clinical; healthy subjects, Single Dose (n = 91)",5.30 L
same,Cmin,"clinical; healthy subjects, Single Dose (n = 91), normalized to a dose of 200 mg",3300 ng/mL
same,Plasma half-life,"clinical; human, in vivo",prolonged
same,AUC(0-t),"clinical; human, in vivo, 200 mg, healthy subjects, Multiple Dose (n = 109), normalized to a dose of 200 mg, after a median of 4 (2-14) days, read-out: AUC0-24",459 µg·h/mL
same,Cmax,"clinical; human, in vivo, 200 mg, healthy subjects, Multiple Dose (n = 109), normalized to a dose of 200 mg, after a median of 4 (2-14) days, read-out: Cmax",46800 ng/mL
same,AUC(0-t),"clinical; human, in vivo, 200 mg, healthy subjects, Single Dose (n = 91), normalized to a dose of 200 mg, read-out: AUC0-24",216 µg·h/mL
same,Cmax,"clinical; human, in vivo, 200 mg, healthy subjects, Single Dose (n = 91), normalized to a dose of 200 mg, read-out: Cmax",33900 ng/mL
same,AUC(0-t),"clinical; human, in vivo, 180-330 mg/day (n = 140), read-out: AUC0-24, Mean",181 µg·h/mL
same,AUC(0-t),"clinical; human, in vivo, 180-330 mg/day (n = 140), read-out: AUC0-24, Median",171 µg·h/mL
same,clearance,"clinical; human, in vivo, 180-330 mg/day (n = 140), read-out: CL, Mean (converted)",9.57 mL/min
same,clearance,"clinical; human, in vivo, 180-330 mg/day (n = 140), read-out: CL, Median (converted)",9.07 mL/min
same,Cmax,"clinical; human, in vivo, 180-330 mg/day (n = 140), read-out: Cmax, Mean",33400 ng/mL
same,Cmax,"clinical; human, in vivo, 180-330 mg/day (n = 140), read-out: Cmax, Median",30000 ng/mL
same,half-life,"clinical; human, in vivo, 180-330 mg/day (n = 140), read-out: T1/2, α, Mean (converted)",2.13 h
same,half-life,"clinical; human, in vivo, 180-330 mg/day (n = 140), read-out: T1/2, α, Median (converted)",2.13 h
same,half-life,"clinical; human, in vivo, 180-330 mg/day (n = 140), read-out: T1/2, β, Mean (converted)",29.7 h
same,half-life,"clinical; human, in vivo, 180-330 mg/day (n = 140), read-out: T1/2, β, Median (converted)",29.3 h
same,half-life,"clinical; human, in vivo, 180-330 mg/day (n = 140), read-out: T1/2, γ, Mean (converted)",376 h
same,half-life,"clinical; human, in vivo, 180-330 mg/day (n = 140), read-out: T1/2, γ, Median (converted)",373 h
same,AUC(0-t),"clinical; human, in vivo, <180 mg/day (n = 181), read-out: AUC0-24, Mean",90 µg·h/mL
same,AUC(0-t),"clinical; human, in vivo, <180 mg/day (n = 181), read-out: AUC0-24, Median",73.6 µg·h/mL
same,clearance,"clinical; human, in vivo, <180 mg/day (n = 181), read-out: CL, Mean (converted)",9.3 mL/min
same,clearance,"clinical; human, in vivo, <180 mg/day (n = 181), read-out: CL, Median (converted)",9.17 mL/min
same,Cmax,"clinical; human, in vivo, <180 mg/day (n = 181), read-out: Cmax, Mean",17800 ng/mL
same,Cmax,"clinical; human, in vivo, <180 mg/day (n = 181), read-out: Cmax, Median",14300 ng/mL
same,half-life,"clinical; human, in vivo, <180 mg/day (n = 181), read-out: T1/2, α, Mean (converted)",2.01 h
same,half-life,"clinical; human, in vivo, <180 mg/day (n = 181), read-out: T1/2, α, Median (converted)",1.97 h
same,half-life,"clinical; human, in vivo, <180 mg/day (n = 181), read-out: T1/2, β, Mean (converted)",27.4 h
same,half-life,"clinical; human, in vivo, <180 mg/day (n = 181), read-out: T1/2, β, Median (converted)",27.5 h
same,half-life,"clinical; human, in vivo, <180 mg/day (n = 181), read-out: T1/2, γ, Mean (converted)",376 h
same,half-life,"clinical; human, in vivo, <180 mg/day (n = 181), read-out: T1/2, γ, Median (converted)",387 h
same,AUC(0-t),"clinical; human, in vivo, >330 mg/day (n = 239), read-out: AUC0-24, Mean",750 µg·h/mL
same,AUC(0-t),"clinical; human, in vivo, >330 mg/day (n = 239), read-out: AUC0-24, Median",712 µg·h/mL
same,clearance,"clinical; human, in vivo, >330 mg/day (n = 239), read-out: CL, Mean (converted)",7.35 mL/min
same,clearance,"clinical; human, in vivo, >330 mg/day (n = 239), read-out: CL, Median (converted)",6.68 mL/min
same,Cmax,"clinical; human, in vivo, >330 mg/day (n = 239), read-out: Cmax, Mean",106000 ng/mL
same,Cmax,"clinical; human, in vivo, >330 mg/day (n = 239), read-out: Cmax, Median",105000 ng/mL
same,half-life,"clinical; human, in vivo, >330 mg/day (n = 239), read-out: T1/2, α, Mean (converted)",2.45 h
same,half-life,"clinical; human, in vivo, >330 mg/day (n = 239), read-out: T1/2, α, Median (converted)",2.35 h
same,half-life,"clinical; human, in vivo, >330 mg/day (n = 239), read-out: T1/2, β, Mean (converted)",31.4 h
same,half-life,"clinical; human, in vivo, >330 mg/day (n = 239), read-out: T1/2, β, Median (converted)",29.3 h
same,half-life,"clinical; human, in vivo, >330 mg/day (n = 239), read-out: T1/2, γ, Mean (converted)",353 h
same,half-life,"clinical; human, in vivo, >330 mg/day (n = 239), read-out: T1/2, γ, Median (converted)",347 h
same,clearance,"clinical; human, in vivo, healthy subjects, Multiple Dose (n = 109), read-out: CL (converted)",5.15 mL/min
same,half-life,"clinical; human, in vivo, healthy subjects, Multiple Dose (n = 109), read-out: T1/2, α (converted)",2.82 h
same,half-life,"clinical; human, in vivo, healthy subjects, Multiple Dose (n = 109), read-out: T1/2, β (converted)",33 h
same,half-life,"clinical; human, in vivo, healthy subjects, Multiple Dose (n = 109), read-out: T1/2, γ (converted)",320 h
same,clearance,"clinical; human, in vivo, healthy subjects, Single Dose (n = 91), read-out: CL (converted)",6.7 mL/min
same,half-life,"clinical; human, in vivo, healthy subjects, Single Dose (n = 91), read-out: T1/2, α (converted)",2.25 h
same,half-life,"clinical; human, in vivo, healthy subjects, Single Dose (n = 91), read-out: T1/2, β (converted)",19.8 h
same,half-life,"clinical; human, in vivo, healthy subjects, Single Dose (n = 91), read-out: T1/2, γ (converted)",316 h
same,Efficacy against MSSA or MRSA strains,MSSA or MRSA strains,active against all tested strains
